Where two headings read alike, the source gives them in different places.
What was measured:
HeLa S-3 cells = test: HeLa GI50 determination (SRB growth inhibition); format: cell-based, human; settings: Homo sapiens, HeLa S3, 48 h
Method: Growth inhibition (GI50) values were measured on the human cervical carcinoma cell line, HeLa S-3, which were selected for growth on plastic. The HeLa cell assay was based on the description of Skehan et al., J. Natl. Cancer Inst., 82:1107-12 (1990), which is hereby incorporated by reference in its entirety. HeLa cells were plated at 2×10^4 cells/well in 96 well plates. One day later, a control plate was fixed by the addition of TCA to 5%. After five rinses with tap water, the plate was air-dried and stored at 4° C. Test compounds were added to the remaining plates at 10-fold dilutions. Two days later, all plates were fixed as described above. Cells were then stained by the addition of 100 μL per well of 0.4% sulforhodamine B (SRB) in 1% acetic acid for 30 min at 4° C. Wells were then quickly rinsed 5× with 1% acetic acid and allowed to air dry. The SRB was then solubilized by the addition of 100 μL per well of unbuffered 10 mM Tris base. Dye was quantified by measuring absorbance at 490 nm on a Molecular Devices microplate reader. Growth inhibition was calculated according to the following equation: GI=100×(T−T0)/(C−T0), where the optical density (OD) of the test well after 2 days of treatment was T, the OD of the wells in the control plate on day 0 was T0 and C was the OD of untreated wells. Plots of percent growth inhibition versus inhibitor concentration were used to determine the GI50.

MCF-7 cells = test: MCF-7 GI50 determination (crystal violet growth inhibition); format: cell-based, human; settings: Homo sapiens, MCF7, 96 h
Method: Growth inhibition (GI50) values were measured on the human breast carcinoma line, MCF-7. MCF-7 cells were plated at 2×10^4 cells/well in 96 well plates and grown for 24 hours in drug free media. On day 2, test compounds were added to the plates at 10-fold dilutions. Four days later, cells were fixed by the addition of glutaraldehyde to 0.75%. After 30 min, the fixed cells were extensively rinsed with distilled water and dried at room temperature for one hour. The cells were then stained with a 0.2% crystal violet solution for one hour at room temperature. Unbound stain was removed by ten rinses with tap water and plates were allowed to air dry for 30 min. The crystal violet was then solubilized by the addition of 10% acetic acid for 15 min and quantified by measuring absorbance at 570 nm on a Molecular Devices microplate reader. Growth inhibition was calculated according to the following equation: GI=[…], where the optical density (OD) of the test well after 4 days of treatment was T, the OD of the wells in the control plate on day 0 was T0. Plots of percent growth inhibition versus inhibitor concentration were used to determine the GI50.

[1] = read-out: MCF-7 Cells GI50 (nM)
[2] = HeLa S-3 cells, 2 days of treatment, sulforhodamine B, read-out: HeLa Cells GI50
[3] = MCF-7 cells, 4 days of treatment, crystal violet, read-out: MCF-7 Cells GI50

Row | Compound | GI50 (HeLa S-3 cells; read-out: HeLa Cells GI50 (nM)) [nM] | GI50 (MCF-7 cells; [1]) [nM] | GI50 (HeLa S-3 cells; [2]) [nM] | GI50 (MCF-7 cells; [3]) [nM]
1 | CC[C@]1(O)C[C@H]2CN(CCc3c([nH]c4ccc(-c5ccc(F)cc5)cc34)[C@@](C(=O)OC)(c3cc4c(cc3OC)N(C)[C@H]3[C@@](O)(C(=O)OC)[C@H](OC(C)=O)[C@]5(CC)C=CCN6CC[C@]43[C@@H]65)C2)C1 [Example 10, 12′-(4-fluorophenyl) vinblastine] | 250 | 95 |  | 
2 | CCCCCC(=O)c1ccc2[nH]c3c(c2c1)CCN1C[C@H](C[C@@](O)(CC)C1)C[C@]3(C(=O)OC)c1cc2c(cc1OC)N(C=O)[C@H]1[C@@](O)(C(=O)OC)[C@H](OC(C)=O)[C@]3(CC)C=CCN4CC[C@]21[C@@H]43 [Example 72, 12′-hexanoylvincristine] | 40 | 50 |  | 
3 | CC[C@]1(O)C[C@H]2CN(CCc3c([nH]c4ccc(SC)cc34)[C@@](C(=O)OC)(c3cc4c(cc3OC)N(C)[C@H]3[C@@](O)(C(=O)OC)[C@H](OC(C)=O)[C@]5(CC)C=CCN6CC[C@]43[C@@H]65)C2)C1 [Example 43, 12′-(methylsulfanyl) vinblastine] |  |  | 0.6 | 2
4 | CCc1cc2[nH]c3c(c2cc1CC)CCN1C[C@H](C[C@@](O)(CC)C1)C[C@]3(C(=O)OC)c1cc2c(cc1OC)N(C=O)[C@H]1[C@@](O)(C(=O)OC)[C@H](OC(C)=O)[C@]3(CC)C=CCN4CC[C@]21[C@@H]43 [Example 95, 12′,13′-diethylvincristine] | 20 | 30 |  | 
5 | CC[C@]1(O)C[C@H]2CN(CCc3c([nH]c4ccc(C#CC(C)C)cc34)[C@@](C(=O)OC)(c3cc4c(cc3OC)N(C=O)[C@H]3[C@@](O)(C(=O)OC)[C@H](OC(C)=O)[C@]5(CC)C=CCN6CC[C@]43[C@@H]65)C2)C1 [Example 21, 12′-(3-methylbutynyl) vincristine] | 300 | 300 |  | 
6 | CCc1ccc2[nH]c3c(c2c1)CCN1C[C@H](C[C@@](O)(CC)C1)C[C@]3(C(=O)OC)c1cc2c(cc1OC)N(C=O)[C@H]1[C@@](O)(C(=O)OC)[C@H](OC(C)=O)[C@]3(CC)C=CCN4CC[C@]21[C@@H]43 [Example 78, 12′-ethylvincristine] |  |  | 5 | 10
7 | CC[C@]1(O)C[C@H]2CN(CCc3c([nH]c4ccc(-c5cccnc5)cc34)[C@@](C(=O)OC)(c3cc4c(cc3OC)N(C)[C@H]3[C@@](O)(C(=O)OC)[C@H](OC(C)=O)[C@]5(CC)C=CCN6CC[C@]43[C@@H]65)C2)C1 [Example 13, 12′-(3-pyridyl) vinblastine] | > 1000 | 600 |  | 
8 | CC[C@]1(O)C[C@H]2CN(CCc3c([nH]c4ccc(N(C)c5ccccc5)cc34)[C@@](C(=O)OC)(c3cc4c(cc3OC)N(C)[C@H]3[C@@](O)(C(=O)OC)[C@H](OC(C)=O)[C@]5(CC)C=CCN6CC[C@]43[C@@H]65)C2)C1 [Example 79, 12′-(N-methyl-N-phenylamino) vinblastine] | 700 | > 1000 |  | 
9 | CC[C@]1(O)C[C@H]2CN(CCc3c([nH]c4ccc(SCCN(C)C)cc34)[C@@](C(=O)OC)(c3cc4c(cc3OC)N(C)[C@H]3[C@@](O)(C(=O)OC)[C@H](OC(C)=O)[C@]5(CC)C=CCN6CC[C@]43[C@@H]65)C2)C1 [Example 48, 12′-(2-(N,N-dimethylamino)ethylsulfanyl)vinblastine] | 30 | 40 |  | 
10 | CC#Cc1ccc2[nH]c3c(c2c1)CCN1C[C@H](C[C@@](O)(CC)C1)C[C@]3(C(=O)OC)c1cc2c(cc1OC)N(C)[C@H]1[C@@](O)(C(=O)OC)[C@H](OC(C)=O)[C@]3(CC)C=CCN4CC[C@]21[C@@H]43 [Example 18, 12′-propynylvinblastine] |  |  | 300 | 300
11 | CC[C@]1(O)C[C@H]2CN(CCc3c([nH]c4ccc(-c5cccc(OC)c5)cc34)[C@@](C(=O)OC)(c3cc4c(cc3OC)N(C)[C@H]3[C@@](O)(C(=O)OC)[C@H](OC(C)=O)[C@]5(CC)C=CCN6CC[C@]43[C@@H]65)C2)C1 [Example 9, 12′-(3-methoxyphenyl) vinblastine] | 300 | 500 |  | 
12 | CC[C@]1(O)C[C@H]2CN(CCc3c([nH]c4ccc(SCCCN5CCCCC5)cc34)[C@@](C(=O)OC)(c3cc4c(cc3OC)N(C)[C@H]3[C@@](O)(C(=O)OC)[C@H](OC(C)=O)[C@]5(CC)C=CCN6CC[C@]43[C@@H]65)C2)C1 [Example 50, 12′-(3-(piperidin-1-yl)propylsulfanyl) vinblastine] |  |  | 20 | 40
13 | CC[C@]1(O)C[C@H]2CN(CCc3c([nH]c4ccc(Sc5ccccc5O)cc34)[C@@](C(=O)OC)(c3cc4c(cc3OC)N(C)[C@H]3[C@@](O)(C(=O)OC)[C@H](OC(C)=O)[C@]5(CC)C=CCN6CC[C@]43[C@@H]65)C2)C1 [Example 55, 12′-(2-hydroxyphenylsulfanyl)vinblastine] | 19 | 6 |  | 
14 | CC[C@]1(O)C[C@H]2CN(CCc3c([nH]c4ccc(-c5cccc(O)c5)cc34)[C@@](C(=O)OC)(c3cc4c(cc3OC)N(C)[C@H]3[C@@](O)(C(=O)OC)[C@H](OC(C)=O)[C@]5(CC)C=CCN6CC[C@]43[C@@H]65)C2)C1 [Example 12, 12′-(3-hydroxyphenyl) vinblastine] | 200 | 300 |  | 
15 | CCC1=C[C@H]2CN(CCc3c([nH]c4ccc(Br)cc34)[C@@](C(=O)OC)(c3cc4c(cc3OC)N(C=O)[C@H]3[C@@](O)(C(=O)OC)[C@H](OC(C)=O)[C@]5(CC)C=CCN6CC[C@]43[C@@H]65)C2)C1 [Example 99, 12′-bromoanhydro vincristine] |  |  | 4 | 1
16 | CCc1ccc2[nH]c3c(c2c1)CCN1C[C@H](C[C@@](O)(CC)C1)C[C@]3(C(=O)OC)c1cc2c(cc1OC)N(C)[C@H]1[C@@](O)(C(=O)OC)[C@H](OC(C)=O)[C@]3(CC)C=CCN4CC[C@]21[C@@H]43 [Example 77, 12′-ethylvinblastine] |  |  | 0.3 | 0.6
17 | CC[C@]1(O)C[C@H]2CN(CCc3c([nH]c4cc(I)c(I)cc34)[C@@](C(=O)OC)(c3cc4c(cc3OC)N(C=O)[C@H]3[C@@](O)(C(=O)OC)[C@H](OC(C)=O)[C@]5(CC)C=CCN6CC[C@]43[C@@H]65)C2)C1 [Example 90, 12′,13′-diiodovincristine] | 30 | 30 |  | 
18 | CC[C@]1(O)C[C@H]2CN(CCc3c([nH]c4ccc(-c5ccccc5)cc34)[C@@](C(=O)OC)(c3cc4c(cc3OC)N(C=O)[C@H]3[C@@](O)(C(=O)OC)[C@H](OC(C)=O)[C@]5(CC)C=CCN6CC[C@]43[C@@H]65)C2)C1 [Example 5, 12′-phenylvincristine] | 50 | 30 |  | 
19 | CC[C@]1(O)C[C@H]2CN(CCc3c([nH]c4ccc(C=O)cc34)[C@@](C(=O)OC)(c3cc4c(cc3OC)N(C)[C@H]3[C@@](O)(C(=O)OC)[C@H](OC(C)=O)[C@]5(CC)C=CCN6CC[C@]43[C@@H]65)C2)C1 [Example 61, 12′-formylvinblastine] |  |  | 3 | 3
20 | CC[C@]1(O)C[C@H]2CN(CCc3c([nH]c4ccc(N)cc34)[C@@](C(=O)OC)(c3cc4c(cc3OC)N(C)[C@H]3[C@@](O)(C(=O)OC)[C@H](OC(C)=O)[C@]5(CC)C=CCN6CC[C@]43[C@@H]65)C2)C1 [Example 80, 12′-aminovinblastine] |  |  | 200 | 200
21 | CC[C@]1(O)C[C@H]2CN(CCc3c([nH]c4ccc(-c5nccs5)cc34)[C@@](C(=O)OC)(c3cc4c(cc3OC)N(C)[C@H]3[C@@](O)(C(=O)OC)[C@H](OC(C)=O)[C@]5(CC)C=CCN6CC[C@]43[C@@H]65)C2)C1 [Example 15, 12′-(2-thiazolyl) vinblastine] | 200 | 100 |  | 
22 | CC[C@]1(O)C[C@H]2CN(CCc3c([nH]c4ccc(Nc5ccc(OC)cc5)cc34)[C@@](C(=O)OC)(c3cc4c(cc3OC)N(C)[C@H]3[C@@](O)(C(=O)OC)[C@H](OC(C)=O)[C@]5(CC)C=CCN6CC[C@]43[C@@H]65)C2)C1 [Example 83, 12′-(4-methoxyphenylamino)vinblastine] | 300 | 500 |  | 
23 | CC[C@]1(O)C[C@H]2CN(CCc3c([nH]c4ccc(CNC(C)C)cc34)[C@@](C(=O)OC)(c3cc4c(cc3OC)N(C)[C@H]3[C@@](O)(C(=O)OC)[C@H](OC(C)=O)[C@]5(CC)C=CCN6CC[C@]43[C@@H]65)C2)C1 [Example 64, 12′-(N-isopropylaminomethyl)vinblastine] |  |  | 900 | > 1000
